Measurements: patent publication US5690959A, “Pharmaceutical thermal infusion process” (priority 1993, dated 1997)
Structures can show the parent of a compound that is named as a salt.

Tests used:
[1] = cited from earlier work
[2] = Degradation of clavulanate on thermal infusion; assay type: physicochemical
[3] = cited from earlier work; remark: listed apart in the source

Row | SMILES | solubility in water [1] | degradation of clavulanate ([2]; more appropriate thermal infusion temperature) | degradation of clavulanate ([2]; thermal infusion at the more extreme temperatures) | hydrolytic degradation ([3]; contacted by water) | spontaneous exothermic reaction ([3]; transport in bulk)
1 | O=C(O)[C@H]1/C(=C/CO)O[C@@H]2CC(=O)N21 [clavulanate] | highly water soluble | eliminates the degradation | minimal degree of degradation |  | 
2 | O=C(O)[C@H]1/C(=C/CO)O[C@@H]2CC(=O)N21 [salts of clavulanic acid, Z-(3R,5R)-2-(β-hydroxyethyldiene) clavam-3-carboxylate] | freely water soluble |  |  | undergo spontaneous hydrolytic degradation when contacted by water | undergo a spontaneous exothermic reaction with the release of large quantities of gas and fumes
3 | CN/C(=N/CCSCc1nc[nH]c1C)NC#N [Cimetidine, N"-cyano-N-methyl-N'-[2-[[(5-methyl-1-H-imidazol-4-yl)methyl]thio]-ethyl]-guanidine] | moderately soluble in water |  |  |  | 
